Source: PubChem BioAssay (NCI)
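Assay format: 96-well plates, 48-hour exposure. The concentration for 50% growth inhibition is given as GI50. TGI: concentration producing complete growth inhibition.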

Tests used:
Experiment in all cases: growth of human tumour cells (NCI), 48 h; in the data active = GI50 below about 0.43 µM; inactive = the rest
OVCAR-8 ovarian = test system: OVCAR-8 ovarian
SNB-19 CNS = test system: SNB-19 CNS
HCT-15 colon = test system: HCT-15 colon
IGROV1 ovarian = test system: IGROV1 ovarian
SK-MEL-5 melanoma = test system: SK-MEL-5 melanoma
NCI-H226 lung = test system: NCI-H226 lung
CCRF-CEM leukemia = test system: CCRF-CEM leukemia
MCF7 breast = test system: MCF7 breast
DU-145 prostate = test system: DU-145 prostate
NCI-H522 lung = test system: NCI-H522 lung

COc1ccccc1NC(=O)C1=C(C)NC(C)=C(C(=O)Nc2ccccc2OC)C1c1cccc2ccccc12
> 100 µM: TGI (OVCAR-8 ovarian) | TGI (SNB-19 CNS) | TGI (HCT-15 colon) | TGI (IGROV1 ovarian) | TGI (SK-MEL-5 melanoma) | TGI (NCI-H226 lung) | TGI (CCRF-CEM leukemia)

O=C(NO)c1ccc(Cn2c(=O)n(-c3ccccc3)c(=O)c3ccccc32)cc1
2.91 µM: TGI (NCI-H226 lung)
2.3 µM: TGI (SK-MEL-5 melanoma)
60.2 µM: TGI (MCF7 breast)
inactive: GI50 (SNB-19 CNS) 1.85 µM | GI50 (MCF7 breast) 1.73 µM | GI50 (SK-MEL-5 melanoma) 1.06 µM | GI50 (NCI-H226 lung) 1.32 µM | GI50 (DU-145 prostate) 0.773 µM | GI50 (CCRF-CEM leukemia) 0.457 µM
> 100 µM: TGI (SNB-19 CNS) | TGI (DU-145 prostate) | TGI (CCRF-CEM leukemia)

CCOC(=O)C(=O)Nc1ccccc1OCC
> 100 µM: TGI (OVCAR-8 ovarian) | TGI (SNB-19 CNS) | TGI (IGROV1 ovarian) | TGI (SK-MEL-5 melanoma) | TGI (NCI-H522 lung) | TGI (NCI-H226 lung) | TGI (CCRF-CEM leukemia)

O=C(Oc1ccc2c(-c3ccccc3)c(C(=O)Nc3ccc(Cl)cc3)c(=O)oc2c1)c1ccccc1
> 100 µM: TGI (OVCAR-8 ovarian) | TGI (SNB-19 CNS) | TGI (HCT-15 colon) | TGI (IGROV1 ovarian) | TGI (SK-MEL-5 melanoma) | TGI (NCI-H522 lung) | TGI (NCI-H226 lung) | TGI (CCRF-CEM leukemia)

ClC1c2ccccc2C2(c3ccccc3)OOC1(c1ccccc1)O2 (stereo not drawn)
0.8 µM: TGI (NCI-H522 lung)
3.21 µM: TGI (SNB-19 CNS)
5.16 µM: TGI (OVCAR-8 ovarian)
3.24 µM: TGI (HCT-15 colon)
2.83 µM: TGI (SK-MEL-5 melanoma)
4.08 µM: TGI (NCI-H226 lung)

O=C1CCCC(O)=C1SC1=C(O)CCCC1=O
> 100 µM: TGI (OVCAR-8 ovarian) | TGI (SNB-19 CNS) | TGI (HCT-15 colon) | TGI (IGROV1 ovarian) | TGI (SK-MEL-5 melanoma) | TGI (NCI-H522 lung) | TGI (NCI-H226 lung) | TGI (CCRF-CEM leukemia)

COc1ccc(-c2nnc(SCC(=O)Nc3ccc(C(=O)/C=C/c4cc(OC)c(OC)c(OC)c4)cc3)n2-c2ccccc2)cc1OC
active: GI50 (MCF7 breast) 0.382 µM
inactive: GI50 (OVCAR-8 ovarian) 5.29 µM | GI50 (SNB-19 CNS) > 10 µM | GI50 (HCT-15 colon) 2.01 µM | GI50 (IGROV1 ovarian) 7.72 µM | GI50 (SK-MEL-5 melanoma) 7.79 µM | GI50 (NCI-H226 lung) 2.29 µM | GI50 (DU-145 prostate) 3.86 µM | GI50 (CCRF-CEM leukemia) 2.84 µM
8.06 µM: TGI (NCI-H226 lung)
> 10 µM: TGI (OVCAR-8 ovarian) | TGI (SNB-19 CNS) | TGI (HCT-15 colon) | TGI (IGROV1 ovarian) | TGI (MCF7 breast) | TGI (SK-MEL-5 melanoma) | TGI (DU-145 prostate) | TGI (CCRF-CEM leukemia)

CN(C)CCNC(=O)c1c2ccccc2cc2ccccc12
34.3 µM: TGI (SK-MEL-5 melanoma)
48.5 µM: TGI (NCI-H226 lung)
> 100 µM: TGI (OVCAR-8 ovarian) | TGI (SNB-19 CNS) | TGI (HCT-15 colon) | TGI (IGROV1 ovarian) | TGI (CCRF-CEM leukemia)

O=C(c1nn(-c2ccc(Cl)cc2)cc1O)n1nc(C(F)(F)F)cc1-c1ccccc1
> 100 µM: TGI (OVCAR-8 ovarian) | TGI (SNB-19 CNS) | TGI (HCT-15 colon) | TGI (IGROV1 ovarian) | TGI (MCF7 breast) | TGI (DU-145 prostate)
16.7 µM: TGI (SK-MEL-5 melanoma)
> 40.7 µM: TGI (NCI-H226 lung)
> 33.8 µM: TGI (CCRF-CEM leukemia)
inactive: GI50 (OVCAR-8 ovarian) 1.87 µM | GI50 (SNB-19 CNS) 3.98 µM | GI50 (HCT-15 colon) 1.13 µM | GI50 (IGROV1 ovarian) 0.921 µM | GI50 (MCF7 breast) 3.38 µM | GI50 (SK-MEL-5 melanoma) 2.07 µM | GI50 (NCI-H226 lung) 2.17 µM | GI50 (DU-145 prostate) 8.47 µM | GI50 (CCRF-CEM leukemia) 0.738 µM

Nc1c(C(=O)NC23CC4CC(CC(C4)C2)C3)[n+]([O-])c2ccccc2[n+]1[O-]
> 100 µM: TGI (OVCAR-8 ovarian) | TGI (SNB-19 CNS) | TGI (HCT-15 colon) | TGI (IGROV1 ovarian) | TGI (SK-MEL-5 melanoma) | TGI (NCI-H522 lung) | TGI (NCI-H226 lung) | TGI (CCRF-CEM leukemia)

O=c1ccn(C2(CO)C=C(CO)C(O)C2O)c(=O)[nH]1 (stereo not drawn)
> 25.7 µM: TGI (OVCAR-8 ovarian) | TGI (SNB-19 CNS) | TGI (HCT-15 colon) | TGI (IGROV1 ovarian) | TGI (SK-MEL-5 melanoma) | TGI (NCI-H522 lung) | TGI (NCI-H226 lung)

COc1cnc2c(c1)C(=O)c1c-2n(CCCNCCN2CCOCC2)c(=O)c2cc([N+](=O)[O-])ccc12
1.38 µM: TGI (NCI-H522 lung)
2.58 µM: TGI (HCT-15 colon)
6.76 µM: TGI (IGROV1 ovarian)
active: GI50 (OVCAR-8 ovarian) 0.174 µM | GI50 (SNB-19 CNS) 0.11 µM | GI50 (HCT-15 colon) 0.297 µM | GI50 (IGROV1 ovarian) 0.422 µM | GI50 (MCF7 breast) 0.0323 µM | GI50 (SK-MEL-5 melanoma) 0.263 µM | GI50 (NCI-H522 lung) 0.0787 µM | GI50 (DU-145 prostate) 0.0608 µM | GI50 (CCRF-CEM leukemia) 0.0453 µM
1.12 µM: TGI (DU-145 prostate)
10.2 µM: TGI (OVCAR-8 ovarian) | TGI (MCF7 breast)
1.26 µM: TGI (SK-MEL-5 melanoma)
5.2 µM: TGI (SNB-19 CNS)
3.2 µM: TGI (CCRF-CEM leukemia)

COc1ccc(/C=C\c2cc(OC)c(OC)c(OC)c2)cc1OCC(=O)Nc1nc2ccccc2s1
active: GI50 (OVCAR-8 ovarian) 0.257 µM | GI50 (HCT-15 colon) 0.0519 µM | GI50 (IGROV1 ovarian) 0.221 µM | GI50 (MCF7 breast) 0.113 µM | GI50 (SK-MEL-5 melanoma) 0.0405 µM | GI50 (NCI-H522 lung) 0.049 µM | GI50 (DU-145 prostate) 0.14 µM | GI50 (CCRF-CEM leukemia) 0.134 µM
0.338 µM: TGI (NCI-H522 lung)
0.263 µM: TGI (SK-MEL-5 melanoma)
> 81.4 µM: TGI (IGROV1 ovarian)
> 100 µM: TGI (OVCAR-8 ovarian) | TGI (HCT-15 colon) | TGI (MCF7 breast) | TGI (DU-145 prostate) | TGI (CCRF-CEM leukemia)

CC(=O)Nc1ccc(-c2csc(Nc3cccc(-c4csc(-c5ccccc5)n4)c3)n2)cc1
inactive: GI50 (OVCAR-8 ovarian) 15.6 µM | GI50 (SNB-19 CNS) 49.7 µM | GI50 (HCT-15 colon) 10.3 µM | GI50 (IGROV1 ovarian) 21.5 µM | GI50 (MCF7 breast) 20 µM | GI50 (SK-MEL-5 melanoma) 18.7 µM | GI50 (NCI-H522 lung) 24.2 µM | GI50 (DU-145 prostate) 22.2 µM | GI50 (CCRF-CEM leukemia) > 50 µM
> 50 µM: TGI (OVCAR-8 ovarian) | TGI (SNB-19 CNS) | TGI (HCT-15 colon) | TGI (IGROV1 ovarian) | TGI (MCF7 breast) | TGI (SK-MEL-5 melanoma) | TGI (NCI-H522 lung) | TGI (DU-145 prostate) | TGI (CCRF-CEM leukemia)
